Measurements reported in US8338420B1, “Treatment of Parkinson's disease and enhancement of dopamine signal using PDE 10 inhibitor” (Mitsubishi Tanabe Pharma Corporation, priority 2002, dated 2012).

Assays:
[1] = tested on: neurons of corpus striatum; assay: Change in intracellular cAMP in primary cultured neurons of corpus striatum; format: cell-based, Wistar rat
Procedure: (1) Primary culture of neurons of corpus striatum Female Wistar rats on day 14 or day 15 of pregnancy were purchased from Japan SLC, Co. Ltd., and fetuses were taken out on day 18 of pregnancy. From the fetus, the brain was excised, and stored on ice-cold Leibovitz's L-15 medium (available from GIBCO) or on DMEM/F-12 medium (available from GIBCO). In the same medium, dura matter was removed and corpus striatum was collected. This striatum part was treated by trypsin to diffuse neurons, and the neurons were diluted and diffused in DMEM medium containing 10% bovine fetal serum. These neurons were inoculated in 48-well plate coated with 0.01% poly-L-lysine (available from Sigma) (2×10^5 cells/well) and cultured. On the next day, the medium was changed to Neurobasal medium (available from GIBCO), containing 50 fold-diluted B-27 supplement (available from GIBCO), and then, half of the medium was replaced on day 4, 7 and 9 of culture, to continue culture.
As in the above (1), neurons were cultured, and on day 10 of culture, the medium was removed, and then, a test compound (PDE10 inhibitors, etc.) diluted with Hank's balanced salt solution were added, and incubated at 37° C. for 15 minutes. Following that, forskolin (final concentration of 1 μM) or dopamine (final concentration of 100 nM) or D1 agonist (SKF82958 Sigma) (final concentration of 3 nM, 10 nM, 30 nM) was added thereto, and further incubated at 37° C. for 15 minutes.
Intracellular cAMP was measured using cAMP EIA kit available from Amersham Biosciences. Accordingly, after removing the reaction mixture, lysis buffer 1B (attached to cAMP EIA kit) was added to stop the reaction, and to lead cytolysis, and intracellular cAMPs were extracted. An amount of cAMPs in the extract was measured according to a protocol attached to the cAMP EIA kit.

[2] = molecular target: T1, PDE7 (PDE7A) (Homo sapiens, UniProt Q13946); assay: PDE assay, recombinant human PDE7A; format: biochemical; details: substrate about 4.8 nM [3H]-cAMP and 0.1 μM cAMP
T1 construct: His tag (hexahistidine, pcDNA4/HisMax) (N); made in house
T1 sequence (Q13946 1-456 isoform Q13946-2): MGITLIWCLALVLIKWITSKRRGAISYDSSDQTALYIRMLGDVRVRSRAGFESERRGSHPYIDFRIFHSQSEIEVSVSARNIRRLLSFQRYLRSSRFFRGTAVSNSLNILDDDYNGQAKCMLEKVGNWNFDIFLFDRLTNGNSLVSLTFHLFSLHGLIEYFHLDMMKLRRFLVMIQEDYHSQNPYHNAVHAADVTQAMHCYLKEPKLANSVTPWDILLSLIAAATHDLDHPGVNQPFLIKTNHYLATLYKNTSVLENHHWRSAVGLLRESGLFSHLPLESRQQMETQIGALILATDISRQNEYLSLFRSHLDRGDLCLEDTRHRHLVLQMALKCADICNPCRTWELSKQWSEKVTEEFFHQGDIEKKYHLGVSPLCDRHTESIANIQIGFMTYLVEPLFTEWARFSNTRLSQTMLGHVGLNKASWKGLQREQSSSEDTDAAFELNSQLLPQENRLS
Source text: (§1) Based on the information of cDNA sequence of human PDE7A (Genbank/EMBL Accession No. NM002603), a cDNA encoding human PDE7A was cloned by PCR method, according to a method described in Sasaki et al. (Sasaki et al., Biochem. Biophys. Res. Commun., vol. 271, pp. 575-583, 2000). Further, based on the information of cDNA sequence of human PDE8A (Genbank/EMBL Accession No. AF388183), a cDNA encoding human PDE8A was cloned by PCR method, according to a method described in Gamanuma et al. (Gamanuma et al., Cell Signal, 2003, vol. 15, pp. 565-574). Further, a cDNA encoding human PDE11A was obtained, according to a method reported in Yuasa et al. (Yuasa et al., J. Biol. Chem., vol. 275, pp. 31469-31479, 2000). Using these cDNAs, recombinant proteins of human PDE7A, human PDE8A, and human PDE11A were prepared as follows.
(§2) DNA fragments comprising a cDNA encoding human PDE7A, human PDE8A or human PDE11A were linked to pcDNA4/HisMax (available from Invitrogen), to give a vector plasmid for expression of human proteins, with a histidine tag peptide (hexahistidine), added to the N-terminus. COS-7 cells were transfected with these vector plasmids, and the cells were cultured in Dulbecco's modified Eagle medium containing 10% bovine fetal serum for about 24 hours. […]

[3] = molecular target: T2, PDE8 (PDE8A) (Homo sapiens, UniProt O60658); assay: PDE assay, recombinant human PDE8A; format: biochemical; details: substrate about 4.8 nM [3H]-cAMP and 0.1 μM cAMP
T2 construct: His tag (hexahistidine, pcDNA4/HisMax) (N); made in house
T2 sequence (O60658 whole entry): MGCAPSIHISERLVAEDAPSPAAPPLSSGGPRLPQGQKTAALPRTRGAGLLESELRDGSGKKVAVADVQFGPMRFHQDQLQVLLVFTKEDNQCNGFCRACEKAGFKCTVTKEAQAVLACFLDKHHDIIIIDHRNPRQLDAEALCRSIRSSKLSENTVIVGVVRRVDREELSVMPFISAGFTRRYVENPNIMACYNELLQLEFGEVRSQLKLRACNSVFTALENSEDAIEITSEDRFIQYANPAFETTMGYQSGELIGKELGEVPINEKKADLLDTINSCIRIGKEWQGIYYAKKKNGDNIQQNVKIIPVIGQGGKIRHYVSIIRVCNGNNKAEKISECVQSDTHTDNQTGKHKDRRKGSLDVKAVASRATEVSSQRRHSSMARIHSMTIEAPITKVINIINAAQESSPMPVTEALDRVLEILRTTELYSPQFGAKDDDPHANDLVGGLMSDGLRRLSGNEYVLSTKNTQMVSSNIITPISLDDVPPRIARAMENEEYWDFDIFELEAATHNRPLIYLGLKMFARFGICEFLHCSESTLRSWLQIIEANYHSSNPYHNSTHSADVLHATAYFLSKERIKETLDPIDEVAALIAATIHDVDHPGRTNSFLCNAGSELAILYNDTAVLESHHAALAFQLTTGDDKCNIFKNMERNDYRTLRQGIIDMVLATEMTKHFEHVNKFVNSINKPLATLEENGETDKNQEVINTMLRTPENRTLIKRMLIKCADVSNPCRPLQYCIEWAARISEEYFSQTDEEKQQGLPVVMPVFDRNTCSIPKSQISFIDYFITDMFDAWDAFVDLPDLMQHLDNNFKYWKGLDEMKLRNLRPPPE
Source text: as §1, §2

- IC50 [2]: > 1000 nM
- IC50 [3]: > 1000 nM
Compound: COc1ccc(-c2cc(N3CCCC3)nc(/C=C/c3nc(-n4ccnc4)c4ccccc4n3)n2)cc1OC [Compound A, 2-{(E)-2-[4-(1-imidazolyl)-quinazolin-2-yl]}ethenyl-4-(3,4-dimethoxy)phenyl-6-(pyrrolidin-1-yl)pyrimidine]
- intracellular cAMP increase caused by dopamine stimulus in neuron ([1]; compound concentration 1 μM, dopamine 100 nM): enhanced intracellular cAMP increase caused by dopamine stimulus
- intracellular cAMP increase caused by D1 agonist (SKF82958) stimulus in neuron ([1]; compound concentration 10 μM, 1 μM): enhanced intracellular cAMP increase caused by D1 agonist
- intracellular cAMP increase caused by forskolin stimulus in neuron ([1]; compound concentration 10 μM, 1 μM, forskolin 1 μM): enhanced intracellular cAMP increase caused by forskolin stimulus
